One block for each compound: values may come before it. Where a SMILES comes first, the peptide text is derived from it. Where no end group is shown, it is not given here. [ ]: non-standard residue; d: D form. The star is where a group is joined. FITC = O=C1OC2(c3ccc(O)cc3Oc3cc(O)ccc32)c2ccc(NC(=S)*)cc21; pT = C[C@@H](OP(=O)(O)O)[C@H](N)C(=O)O; pS = N[C@@H](COP(=O)(O)O)C(=O)O
Key:
[1] = molecular target: T1, CLTC (Homo sapiens, UniProt Q00610); test: FP competition, CLTC; assay type: binding; conditions: competitive FP assay
T1 construct: Q00610; CLTC; Clathrin propeller; 364; pETM33; Genescript; 6-His-GST; made in house; host or cells: Escherichia coli BL21(DE3) gold (stated for the bait preparation)
T1 sequence (Q00610 1-364): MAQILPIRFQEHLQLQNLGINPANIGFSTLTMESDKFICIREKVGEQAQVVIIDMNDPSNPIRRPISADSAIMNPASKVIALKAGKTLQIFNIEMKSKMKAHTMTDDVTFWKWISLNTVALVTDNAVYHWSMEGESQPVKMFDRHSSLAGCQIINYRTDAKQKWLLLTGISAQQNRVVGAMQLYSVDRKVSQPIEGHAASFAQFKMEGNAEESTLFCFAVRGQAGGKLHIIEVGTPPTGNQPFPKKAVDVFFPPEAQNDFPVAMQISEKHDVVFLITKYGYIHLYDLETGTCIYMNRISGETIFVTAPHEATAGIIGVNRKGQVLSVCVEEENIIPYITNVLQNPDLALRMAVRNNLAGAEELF

[2] = molecular target: T2, KPNA4 ARM (Homo sapiens, UniProt O00629); test: FP saturation (direct binding of FITC probes), KPNA4 ARM
T2 construct: O00629; KPNA4; Arm; 68; 487; pETM33/pETM41; Genescript; made in house; host or cells: bacteria (E. coli BL21(DE3) gold is named only for the phage-selection preparations)

[3] = molecular target: T3, KPNB1 HEAT (Homo sapiens, UniProt Q14974); test: FP saturation (direct binding of FITC probe), KPNB1 HEAT; conditions: direct binding of FITC-labeled probe, 10 nM in master mix, 50 mM KPO4 pH 7.5
T3 construct: Q14974; KPNB1; HEAT; 485; pETM41; Genescript; 6-His-MBP (from vector pETM41) (cleaved yes); made in house; host or cells: bacteria (E. coli BL21(DE3) gold is named only for the phage-selection preparations)

[4] = molecular target: T4, TLN1 PTB (Homo sapiens, UniProt Q9Y490); test: FP saturation (direct binding of FITC probe), TLN1 PTB; conditions: Fig 3C; direct binding of FITC-labeled probe
T4 construct: Q9Y490; TLN1; PTB; 309; pHH0103; Sidhu Lab (PMID: 33438817); made in house; host or cells: bacteria (E. coli BL21(DE3) gold is named only for the phage-selection preparations)

[5] = molecular target: T5, SFN 14-3-3 (Homo sapiens, UniProt P31947); test: FP saturation (direct binding of FITC probe), SFN 14-3-3; design: P31947; SFN; 14-3-3; 236; pHH0103; Sidhu Lab (PMID: 33438817); made in house; host or cells: bacteria (E. coli BL21(DE3) gold is named only for the phage-selection preparations); conditions: direct binding of FITC-labeled phospho-RAF1 probe
T5 sequence (P31947 1-236): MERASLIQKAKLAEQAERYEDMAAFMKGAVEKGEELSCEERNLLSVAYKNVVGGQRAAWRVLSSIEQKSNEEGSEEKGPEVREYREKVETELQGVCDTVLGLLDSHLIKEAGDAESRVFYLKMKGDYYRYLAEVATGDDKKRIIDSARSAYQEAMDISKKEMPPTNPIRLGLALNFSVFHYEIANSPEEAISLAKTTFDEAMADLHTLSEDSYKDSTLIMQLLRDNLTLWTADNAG

[6] = molecular target: T5, SFN 14-3-3; test: FP competition, SFN 14-3-3
[7] = molecular target: T2, KPNA4 ARM; test: FP competition, KPNA4 ARM major pocket (FITC-Myc probe); assay type: binding
Description: Like other importins, KPNA4 has two distinct NLS‐binding pockets on the surface of an armadillo (ARM) repeat fold (major pocket, ARM 2–4; minor pocket, ARM 6–8; Fig 5B) (Smith et al, [2018]). Bipartite NLSs are usually 17–19 amino acids long and engage both pockets. Monopartite NLSs are short basic stretches, divided into five classes (Kosugi et al, [2009]): class I KR[KR]R or K[KR]RK, class II [PR]xxKR[^DE][KR] (where ^ indicates “not”), class III KRx[WFY]xxAF, class IV [RP]xxKR[KR][^DE], and class V LGKR[KR][WFY]. The class I and class II motifs preferentially interact with the major pocket (Kosugi et al, [2009]). In contrast, class III and class IV NLSs preferentially bind to the minor pocket. Using KPNA4 as a bait against the HD2 P8 library we identified 33 peptides found in 32 proteins. Of the 26 proteins for which information was available, 22 proteins were annotated as having nuclear or nucleolar localization in the UniProt database. To gain additional information we combined the data generated for KPNA4 by screening against the complete P8 HD2 library, with the results generated using two relevant sublibraries (the cytoplasmic and nuclear, and nuclear sublibraries) resulting in a set of 92 peptides containing NLS‐like sequences found in 76 proteins. Using these peptides we could generate consensus motifs that matched four of the previously reported NLS classes (Fig 5A; class I‐IV). […] Three peptides bound only to the major pocket. Eight peptides with class III motif and one KRxH‐containing peptide only bound to the minor pocket. Five peptides outcompeted both probe peptides, which may be explained by the amino acid sequence matching both class II and class III motifs (e.g., 1135‐ PSPKRKL ‐1139 in ZNF532; Fig 5), and possibly by cross specificity of the two binding pockets.

[8] = test system: HEK293 cells; test: GFP-based NLS sensor (tri-GFP) cellular localization; assay type: cell-based, human; conditions: HEK293 cells transiently transfected, fixed 36 h after transfection, epifluorescence microscopy, DAPI; n = 3 independent experiments
Description: For the cell‐based NLS experiment, a pEGFP‐C1 vector was modified to contain two additional eGFP genes spaced by a linker region on the 3′ end of the vector's multiple cloning site (Appendix Fig S8). The modified vector is here called a “tri‐GFP vector”. DNA strands for tandem peptides to be tested for NLS function were constructed by PCR using overlapping primers that coded for the peptide sequences and also contained overlapping regions for the MCS in the tri‐GFP vector. The PCR products were then cloned into the tri‐GFP vector using Gibson Assembly® (New England Biolabs) following the manufacturer's recommendations. Obtained clones were verified by Sanger sequencing.
HEK293 cells were obtained from Sigma (Cat. 85120602) and cultured using DMEM with GlutaMAX™ Supplement (Gibco™) supplemented with 10% FBS (Gibco™) and Non‐Essential Amino Acids Solution (NEAA, Gibco™). Cultures were maintained at 37°C with 5% CO2 in humidified chambers and were routinely checked for mycoplasma contamination. For NLS experiments, cells were transfected using FuGENE® HD (Promega) according to manufacturer's instructions and using highly purified DNA samples. • Cells were then grown in eight‐well chamber slides. […]

T2 sequence (O00629 68-487): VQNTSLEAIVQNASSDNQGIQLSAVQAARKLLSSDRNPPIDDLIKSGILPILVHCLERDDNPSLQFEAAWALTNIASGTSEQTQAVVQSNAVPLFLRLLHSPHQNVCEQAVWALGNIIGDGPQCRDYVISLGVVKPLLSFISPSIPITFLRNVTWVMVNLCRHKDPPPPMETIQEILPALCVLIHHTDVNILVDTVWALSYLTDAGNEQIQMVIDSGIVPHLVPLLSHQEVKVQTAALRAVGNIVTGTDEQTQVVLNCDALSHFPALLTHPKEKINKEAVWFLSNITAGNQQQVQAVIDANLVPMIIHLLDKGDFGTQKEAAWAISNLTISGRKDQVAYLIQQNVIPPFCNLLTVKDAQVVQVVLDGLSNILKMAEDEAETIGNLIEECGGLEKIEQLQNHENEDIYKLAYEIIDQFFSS
T3 sequence (Q14974 1-485): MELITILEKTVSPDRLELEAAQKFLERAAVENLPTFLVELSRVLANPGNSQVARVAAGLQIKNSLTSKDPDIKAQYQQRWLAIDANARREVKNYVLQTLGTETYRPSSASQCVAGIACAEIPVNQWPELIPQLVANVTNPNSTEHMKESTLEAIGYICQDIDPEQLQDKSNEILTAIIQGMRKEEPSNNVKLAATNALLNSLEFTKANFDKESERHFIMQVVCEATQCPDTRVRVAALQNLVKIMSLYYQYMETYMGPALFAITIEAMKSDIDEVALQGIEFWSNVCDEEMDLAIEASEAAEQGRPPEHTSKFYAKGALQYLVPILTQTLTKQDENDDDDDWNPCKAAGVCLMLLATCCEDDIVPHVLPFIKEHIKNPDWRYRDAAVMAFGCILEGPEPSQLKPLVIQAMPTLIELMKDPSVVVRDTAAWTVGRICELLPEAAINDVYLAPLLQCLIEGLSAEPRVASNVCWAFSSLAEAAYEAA
T4 sequence (Q9Y490 309-401): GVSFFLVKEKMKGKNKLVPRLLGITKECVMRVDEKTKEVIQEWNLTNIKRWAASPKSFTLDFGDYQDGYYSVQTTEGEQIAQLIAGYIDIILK

IC50 [1]: 87 µM
Compound: CC[C@H](C)[C@H](NC(=O)[C@H](CC(C)C)NC(=O)[C@@H]1CCCN1C(=O)[C@H](CC(C)C)NC(=O)[C@H](CC(=O)O)NC(=O)[C@@H](NC(=O)[C@H](CC(C)C)NC(C)=O)[C@@H](C)CC)C(=O)N[C@@H](CC(=O)O)C(=O)N[C@@H](Cc1ccccc1)C(=O)N[C@@H](CS)C(=O)N[C@@H](CC(=O)O)C(=O)N[C@H](C(=O)N1CCC[C@H]1C(=O)N[C@@H](CCC(=O)O)C(=O)N[C@@H](C)C(=O)N[C@@H](Cc1c[nH]cn1)C(=O)N[C@@H](Cc1ccc(O)cc1)C(=O)O)[C@@H](C)OP(=O)(O)O [GTSE1 pT] (Ac-LIDLPLIDFCD[pT]PEAHY-OH)

Kd ([2]; Appendix Fig S7, saturation curves of FITC-labeled probes with KPNA4 ARM): 0.228 ± 0.011 µM
Compound: CC[C@H](C)[C@H](NC(=O)[C@H](C)NC(=O)[C@H](CCCNC(=N)N)NC(=O)CNC(=O)[C@@H](NC(=O)[C@H](CCCNC(=N)N)NC(=O)CNC(=O)[C@H](CCC(=O)O)NC(=O)[C@H](CCSC)NC(=O)[C@H](CCSC)NC(=O)[C@H](CC(=O)O)NC(=O)[C@H](Cc1ccc(O)cc1)NC(=O)[C@@H](NC(=O)[C@H](CCCNC(=N)N)NC(=O)[C@H](CCCCN)NC(=O)[C@@H]1CCCN1C(=S)Nc1ccc2c(c1)C(=O)OC21c2ccc(O)cc2Oc2cc(O)ccc21)[C@@H](C)O)C(C)C)C(=O)O [NCOR2 FITC] ({FITC}-PKRTYDMMEGRVGRAI-OH)

Kd [3]: 106 µM
Compound: CC(C)[C@H](NC(=O)[C@H](Cc1ccccc1)NC(=O)[C@@H](NC(=O)[C@H](C)NC(=O)[C@@H](NC(=S)Nc1ccc2c(c1)C(=O)OC21c2ccc(O)cc2Oc2cc(O)ccc21)C(C)C)[C@@H](C)O)C(=O)N[C@@H](Cc1ccccc1)C(=O)NCC(=O)N[C@@H](CCC(N)=O)C(=O)N[C@@H](CO)C(=O)N[C@@H](CO)C(N)=O [NUP153_FITC] ({FITC}-VATFVFGQSS-NH2)

Kd [4]: 0.15 ± 0.04 µM
Compound: CC(C)C[C@H](NC(=O)[C@@H]1CCCN1C(=O)[C@H](CO)NC(=O)[C@H](Cc1ccc(O)cc1)NC(=O)[C@@H](NC(=O)[C@H](Cc1c[nH]c2ccccc12)NC(=O)[C@H](CO)NC(=O)[C@H](CCCNC(=N)N)NC(=O)[C@H](CCC(=O)O)NC(=O)[C@H](CC(=O)O)NC(=O)[C@@H](NC(=O)[C@@H]1CCCN1C(=O)[C@H](Cc1ccccc1)NC(=S)Nc1ccc2c(c1)C(=O)OC21c2ccc(O)cc2Oc2cc(O)ccc21)[C@@H](C)O)C(C)C)C(=O)N[C@@H](Cc1c[nH]cn1)C(=O)N[C@@H](Cc1ccc(O)cc1)C(=O)N[C@@H](CO)C(N)=O [PIP5K1C_FITC] ({FITC}-FPTDERSWVYSPLHYS-NH2)

Kd [5]: 524 µM
Compound: CC(C)[C@H](NC(=O)[C@H](CC(N)=O)NC(=O)[C@@H]1CCCN1C(=O)[C@@H](NC(=O)[C@H](COP(=O)(O)O)NC(=O)[C@@H](NC(=O)[C@H](CO)NC(=O)[C@H](CCCNC(=N)N)NC(=O)[C@H](CCC(N)=O)NC(=S)Nc1ccc2c(c1)C(=O)OC21c2ccc(O)cc2Oc2cc(O)ccc21)[C@@H](C)O)[C@@H](C)O)C(=O)N[C@@H](Cc1c[nH]cn1)C(N)=O [RAF_FITC] ({FITC}-QRST[pS]TPNVH-NH2)

IC50 [1]: 97 µM
Compound: Ac-LIDLPLIDFCDTPEAHY [GTSE1]

IC50 [6]: 1970 µM
Compound: Ac-NEPTTPSWLADIPPWVP-NH2 [MAP1A]

Ki [7]: 6.8 µM
Compound: Ac-YKCKRQRQDQTLELVGL-NH2 [NKX2-5 Wt]
NLS function: localization of the GFP-based NLS sensor fused to the peptide [8]: nuclear localization

IC50 ([7]; FP competition with FITC-Myc320-328 probe for the major pocket, 50 mM KPO4 pH 7.5, n = 3 technical replicates): 98 µM
loss of affinity of KPNA4 binding, mutant versus wild-type ([7]; FP competition with FITC-Myc probe, K194R versus wild-type): 10 fold
Compound: Ac-YKCRRQRQDQTLELVGL-NH2 [NKX2-5 K194R]
NLS function: localization of the GFP-based NLS sensor fused to the peptide [8]: cytoplasmic localization

IC50 [1]: 220 µM
Compound: Ac-YVSGNLIDLCGNQGLP [MITF Y265C]

Compound: Ac-YVSGNLIDLYGNQGLP [MITF]
IC50 [1]: 150 µM

Kd ([2]; direct binding of FITC-labeled probe, saturation with KPNA4 ARM): 0.03 µM
Compound: {FITC}-PAAKRVKLD [Myc, FITC-labeled Myc 320-328 probe for the KPNA4 major pocket]

From paper PMC8769072, “Proteome‐scale mapping of binding sites in the unstructured regions of the human proteome” (Molecular Systems Biology, 2022)
